Measured values published in patent US11439707B2, “Hypocrellin derivative substituted both in a peri-position and in 2-position by amino, preparation method, and application thereof” (priority 2017, dated 2022).

Columns and labels:
[1] = absorption spectrum (maximum absorption wavelength, molar extinction coefficient); format: physicochemical
[2] = singlet oxygen efficiency test, reference rose bengal; format: physicochemical

Row | Compound | maximum absorption wavelength [1] [nm] | molar extinction coefficient [1] | singlet oxygen yield [2] [%]
1 | COc1c(NC2CCCC(C(=O)O)C2)c2c(=O)cc(OC)c3c4c(OC)cc(=O)c5c(O)c(NC6CCCC(C(=O)O)C6)c6c(c(c1C(C(C)=O)C(C)=C6)c23)c54 (stereo not drawn) [HB-15b] | 623 | 27,000 M^−1cm^−1 | 24
2 | COc1c(O)c2c(=O)cc(OC)c3c4c(OC)cc(=O)c5c(NCCO)c(NCCO)c6c(c(c1CC(C)=C6)c23)c54 [HC-2a] | 627 | 28.500 M⁻¹ cm⁻¹ | 32
3 | COc1c(NCC(=O)O)c2c(=O)cc(OC)c3c4c(OC)cc(=O)c5c(O)c(NCC(=O)O)c6c(c(c1C(C(C)=O)C(C)=C6)c23)c54 (stereo not drawn) [HB-7b] | 622 | 28,000 M^−1cm^−1 | 25
4 | COc1c(NC2CCC(O)CC2)c2c(=O)cc(OC)c3c4c(OC)cc(=O)c5c(O)c(NC6CCC(O)CC6)c6c(c(c1C(C(C)=O)C(C)=C6)c23)c54 (stereo not drawn) [HB-17b] | 620 | 25,500 M^−1cm^−1 | 20
5 | COc1c(NCCC(=O)O)c2c(=O)cc(OC)c3c4c(OC)cc(=O)c5c(O)c(NCCC(=O)O)c6c(c(c1C(C(C)=O)C(C)=C6)c23)c54 (stereo not drawn) [HB-10b] | 615 | 31,500 M^−1cm^−1 | 34
6 | COC(=O)C1CCC(CNc2c3c4c5c(c(OC)c(=O)c6c(NCC7CCC(C(=O)OC)CC7)cc(OC)c(c7c(OC)cc(O)c(c2=O)c74)c65)C(C(C)=O)C(C)=C3)CC1 (stereo not drawn) [HB-13d-AcE] | 623 | 28,000 M^−1cm^−1 | 25
7 | COCCOCCN1C(=O)CN(C(=O)OCCNc2c(NCCOC(=O)N3CC(=O)N(CCOCCOC)C(=O)C3)c3c(=O)cc(OC)c4c5c(OC)cc(=O)c6c(O)c(OC)c7c(c(c2C=C(C)C7C(C)=O)c34)c65)CC1=O (stereo not drawn) [HB-40a-PEG1] | 624 | 31,500 M^−1cm^−1 | 32
8 | COCCOCCOCCOCCOCCOCCOCCN1CCC(CNc2c3c4c5c(c(OC)c(=O)c6c(O)cc(OC)c(c7c(OC)cc(NCC8CCN(CCOCCOCCOCCOCCOCCOCCOC)CC8)c(c2=O)c74)c65)C(C(C)=O)C(C)=C3)CC1 (stereo not drawn) [HB-32c-PEG6] | 632 | 33,500 M^−1cm^−1 | 40
9 | COCCOCCOCCOCCOCCOCCOCCOCCOCCOCCOCCOCCOC(=O)CCCNc1c2c3c4c(c(OC)c(=O)c5c(O)cc(OC)c(c6c(OC)cc(NCCCC(=O)OCCOCCOCCOCCOCCOCCOCCOCCOCCOCCOCCOCCOC)c(c1=O)c63)c54)CC(C)=C2 [HC-8c-PEG12] | 628 | 32,500 M^−1cm^−1 | 38
10 | COc1c2c3c4c(c(NCC(=O)O)c(=O)c5c(NCC(=O)O)cc(OC)c(c6c(OC)cc(O)c(c1=O)c63)c54)C=C(C)C2C(C)=O (stereo not drawn) [HB-7c] | 618 | 27,500 M^−1cm^−1 | 27
11 | COc1c(O)c2c(=O)cc(OC)c3c4c(OC)cc(=O)c5c(NCc6ccccn6)c(NCc6ccccn6)c6c(c(c1C(C(C)=O)C(C)=C6)c23)c54 (stereo not drawn) [HB-38a] | 624 | 19,000 M^−1cm^−1 | 16
12 | COc1c2c3c4c(c(NCCCC(=O)NCCCC[N+](C)(C)C)c(=O)c5c(O)cc(OC)c(c6c(OC)cc(NCCCC(=O)NCCCC[N+](C)(C)C)c(c1=O)c63)c54)C=C(C)C2 [HC-8d-NH—C4-N^+] | 624 | 30,500 M^−1cm^−1 | 33
13 | COCCOCCOCCOCCOCCOCCOCCOCCOCCOCCOCCOCCOC(=O)C1CCCC(Nc2c3c4c5c(c(OC)c(=O)c6c(O)cc(OC)c(c7c(OC)cc(NC8CCCC(C(=O)OCCOCCOCCOCCOCCOCCOCCOCCOCCOCCOCCOCCOC)C8)c(c2=O)c74)c65)C(C(C)=O)C(C)=C3)C1 (stereo not drawn) [HB-15c-PEG12] | 630 | 33,000 M^−1cm^−1 | 35
14 | COc1c(NO)c2c(=O)cc(OC)c3c4c(OC)cc(=O)c5c(O)c(NO)c6c(c(c1CC(C)=C6)c23)c54 [HC-37b] | 622 | 31,500 M^−1cm^−1 | 31
15 | COc1c2c3c4c(c(NCCCCCC(=O)O)c(=O)c5c(O)cc(OC)c(c6c(OC)cc(NCCCCCC(=O)O)c(c1=O)c63)c54)C=C(C)C2 [HC-9d] | 624 | 25,000 M^−1cm^−1 | 26
16 | COCCOCCOCCOCCOCCOCCOCCC(=O)OC1CCC(Nc2c(O)c3c(=O)cc(OC)c4c5c(OC)cc(=O)c6c(NC7CCC(OC(=O)CCOCCOCCOCCOCCOCCOCCOC)C7)c(OC)c7c(c(c2C=C(C)C7C(C)=O)c34)c65)C1 (stereo not drawn) [HB-20b-PEG6] | 624 | 31,000 M^−1cm^−1 | 28
17 | COc1c2c3c4c(c(NCCC(=O)O)c(=O)c5c(NCCC(=O)O)cc(OC)c(c6c(OC)cc(O)c(c1=O)c63)c54)C=C(C)C2C(C)=O (stereo not drawn) [HB-10c] | 622 | 33,000 M^−1cm^−1 | 38
18 | COc1c(O)c2c(=O)cc(OC)c3c4c(OC)cc(=O)c5c(NCCS(=O)(=O)O)c(NCCS(=O)(=O)O)c6c(c(c1C(C(C)=O)C(C)=C6)c23)c54 (stereo not drawn) [HB-11a-C2-SO3H] | 620 | 30,000 M^−1cm^−1 | 32
19 | COCCOCCC(=O)N1CCC(CNc2c(NCC3CCN(C(=O)CCOCCOC)CC3)c3c(=O)cc(OC)c4c5c(OC)cc(=O)c6c(O)c(OC)c7c(c(c2C=C(C)C7C(C)=O)c34)c65)CC1 (stereo not drawn) [HB-31a-PEG1] | 622 | 32,000 M^−1cm^−1 | 32
20 | COc1c(NC2(CO)CC2)c2c(=O)cc(OC)c3c4c(OC)cc(=O)c5c(O)c(NC6(CO)CC6)c6c(c(c1C(C(C)=O)C(C)=C6)c23)c54 (stereo not drawn) [HB-35b] | 620 | 31,500 M^−1cm^−1 | 30
21 | COc1c2c3c4c(c(NCCO)c(=O)c5c(O)cc(OC)c(c6c(OC)cc(NCCO)c(c1=O)c63)c54)C=C(C)C2C(C)=O (stereo not drawn) [HB-2d] | 629 | 30,000 M^−1cm^−1 | 26
22 | COc1c(NCc2ccccn2)c2c(=O)cc(OC)c3c4c(OC)cc(=O)c5c(O)c(NCc6ccccn6)c6c(c(c1C(C(C)=O)C(C)=C6)c23)c54 (stereo not drawn) [HB-38b] | 621 | 18,500 M^−1cm^−1 | 16
23 | COc1c(NCc2cccc[n+]2CCCC(=O)O)c2c(=O)cc(OC)c3c4c(OC)cc(=O)c5c(O)c(NCc6cccc[n+]6CCCC(=O)O)c6c(c(c1C(C(C)=O)C(C)=C6)c23)c54 (stereo not drawn) [HB-38b-N—COOH] | 620 | 21,500 M^−1cm^−1 | 18
24 | COc1c2c3c4c(c(NC5CCC(C(=O)O)CC5)c(=O)c5c(O)cc(OC)c(c6c(OC)cc(NC7CCC(C(=O)O)CC7)c(c1=O)c63)c54)C=C(C)C2C(C)=O (stereo not drawn) [HB-14d] | 623 | 27,000 M^−1cm^−1 | 24
